What was measured:
[1] = tested on: PBX1 transcript; experiment: BG4 RNA immunoprecipitation (RIP) followed by qRT-PCR in A375 cells; type: cell-based, human
Protocol: FIGS. 2A-2G are features formed by dG1 and rG1 in vitro and in cells. In (FIG. 2A), Left: CD spectra of WT and Mut dG1, and Right: CD spectra of WT and Mut rG1. CD is circular dichroism. In (FIG. 2B), Left: gel mobility assay of WT and Mut dG1, and Right: gel mobility assay of WT and Mut rG1. In (FIG. 2C), under specified conditions, fluorescence-on assay of NMM in absence of presence of dG1 or rG1, and their G/A mutant. In (FIG. 2D), the occupancy of BG4 in the PBX1 promoter region is measured in A375 cells by BG4 chromatin immunoprecipitation (ChIP), followed by qRT-PCR. In (FIG. 2E), RNA immunoprecipitation (RIP) detection is performed to show the association between BG4 and the PBX1 transcript in A375 cells, followed by qRT-PCR. In (FIG. 2F), the occupancy of BG4 in the PBX1 promoter region is measured, by the BG4 chip, in A375 cells treated with or without PDS and TMPyP4, followed by qRT-PCR. […] SEM represents the standard error of mean. *P< 0.05, **P< 0.01***P< 0.001.
In this embodiment, several methods are further employed to verify the formation of dG1 and rG1. First, circular dichroism (CD) is used to examine the molar ellipticity of dG1 and rG1 sequences (33 nt) and mutants thereof, and the mutants are designed to eliminate G4 formation. […] N-methyl mesoporphyrin IX (NMN) is the well-known fluorescent G4-specific ligand that can be used for studies of G4 formation in vitro. Both dG1 and rG1 are found to enhance the fluorescence of N N (FIG. 2C). In addition, in this embodiment, chromatin immunoprecipitation (ChIP) and RNA immunoprecipitation (RIP) detection are performed in A375 cells using the well-known G4-specific antibody BG4. […] In summary, dG1 and rG1 can fold stable G4 structures in vitro and in cells. […] Therefore, the ability of these G4-specific ligands to interact with PBX1 G4s is investigated next.
Control:mG*mT*mC*mC*mA*mC*mA*mA*mA*mC*mA*mC*mA*mA*mC*mT*mC* mC*mT*mG*). […] This example also establishes short-term cultures of patient-derived melanoma xenograft (PDX)-derived tumor cells (PDCs) (FIG. 5D). […]

[2] = tested on: PBX1; experiment: PBX1 mRNA and protein levels by qRT-PCR and western blot in A375 cells; type: cell-based, human
Protocol: (§1) RNA extraction and quantitative RT-PCR detection: total RNA is extracted from cultured cells by using TRIzol (Invitrogen, USA), then is converted into cDNA by SuperScript III First-Strand Synthesis SuperMix (Invitrogen, USA). qRT-PCR detection is performed by using SYBR Green®Mix (Invitrogen, USA) in ABI 7500 (Invitrogen, USA). A relative expression quantity of RNA is calculated by using a comparative CT method.
(§2) Immunoblotting: for protein analysis of a whole-cell lysate, cells are lysed with RIPA (CWBIO, Beijing, China) buffer solution. For tumors, liquid nitrogen is first used to pulverize tissues. Then, the lysate is generated on ice with the RIPA (CWBIO, Beijing, China) buffer solution for 20 minutes, and then centrifuged at 4° C., 13000 rpm for 15 minutes. Protein-containing supernatant is transferred to the fresh microcentrifuge tube, and stored at −20° C. (short-term storage) for subsequent use. The protein is quantified by using the BIO-RAD DC protein assay. The total proteins are electrophoresed on SDS-polyacrylamide gels. Then, the proteins are transferred to polyvinylidene difluoride (PVDF) membrane. After incubation with the primary antibody overnight on the shaker at 4° C., the membrane is washed 6 times (5 minutes each time) with TBS-T (Invitrogen, USA). Then, blots are incubated with horseradish peroxidase (IRP)-conjugated secondary antibodies for 60 minutes at RT on the plate shaker. The membrane is cleaned by TBS-T (6×5 minutes). Detection on immunoreactive bands is performed by using SuperSignalmWest Pico chemiluminescence substrate kit (Thermo Fisher Scientific, USA) and Western blotting detection system (BioRad, USA). GAPDH is used as the loading control for western blotting. The intensity levels of the bands are normalized to GAPDH.

[3] = tested on: PBX1; experiment: PBX1 mRNA and protein levels by qRT-PCR and western blot in B16-F10 cells; type: cell-based, mouse
Protocol: as §1, §2

[4] = tested on: A375 cells; experiment: Colony forming assay, A375; type: cell-based, human
Protocol: (§3) Colony forming assay: for the colony forming assay, A375 and B16-F10 cells are seeded on 6-well plates with the density of 500-1000 cells. After two weeks, staining is performed by using 1% crystal violet at room temperature, rinsing is performed with PBS and tap water, and the number of colonies is counted.

[5] = tested on: PDCs; experiment: Colony forming assay, patient-derived tumor cells; type: cell-based, human
Protocol: as §3
Preparation of patient-derived tumor cells: tumor tissues of PDXs are used in basic RPMI1640 medium (Gibco, USA. Free-FBS medium). Patient-derived tumor cells (PDC) are prepared from cryopreserved xenograft fragments using the tumor isolation kit (Miltenyi Biotec, Germany), following the tumor treatment solution. PDCs are cultured as described by Bruna and Shanker et al. (6,7). PDCs are used for colony forming assays.

[6] = tested on: B16-F10 cells; experiment: In vivo tumor metastasis assay, B16-F10 tail vein injection; design: species or system mice; conditions: in vivo studies, summary statement
Protocol: In vivo tumor metastasis assay: 2×10^5 B16-F10 cells are injected into the tail vein of tail vein tumor. According to solutions formulated by the NCI Animal Care and Use Committee, metastatic endpoints are determined for each experiment by maximal primary tumor burden and/or appearance of moribund mice in all treatment groups. PDS (5 mg/kg) is administered twice a day, for 16 consecutive days.
Bioluminescent tumor cell tracking: in vivo whole-animal imaging, anesthetized mice are injected intraperitoneally with 3 mg of d-luciferin (MCE, USA). Luminescence data is collected on an IVIS system (Perkin Elmer, USA). For live tissue imaging, tissues are perfused with PBS, harvested, and incubated in PBS with 1 μg/ml-1d-luciferin. Data analysis is performed using an IVIS Image software package.

[7] = tested on: patient-derived melanoma xenograft (PDX); experiment: PDX model of melanoma in NCG mice; type: in vivo
Protocol: PDX model of melanoma: fresh tumor tissues are collected immediately after surgery, placed in RPMI 1640 medium containing penicillin/streptomycin (100 U/ml; 100 μg/ml), fungal zone (1 μg/ml) and Genta Mycin (50 μg/ml) (all from Gibco, USA) (4,5). According to the institutional review and the ethical guidelines for this study approved by the Ethics Committee of the Second Hospital of Jilin University, fresh tumor samples from patients suffering from melanoma are collected for transplantation with informed consent. The mice were kept and all procedures are performed under the approval and supervision of the Institutional Animal Care and Use Committee (IACUC) of the School of Public Health of Jilin University (Changchun, China). Necrotic tissues are excised before transplantation, and tumor tissues are minced to a size of 2×2×2 mm^3, and implanted subcutaneously in the flank of 6-week-old NCG male mice to generate first-generation (F1) PDX mice. Successfully transplanted tumor models are passaged and stored using standard methods. H&E staining is used to evaluate the morphology of patient tumor specimens and xenografts of established PDX models. Treatment with ASO Scr or ASO (intravenous injection, 20 mg/kg) is initiated when the tumor volume of the mice reached 220-280 mm^3. Tumor growth and body weight measurements are performed. Tumors are dissected at the end of treatment for further processing for RNA, protein and histological analysis.
Control:mG*mT*mC*mC*mA*mC*mA*mA*mA*mC*mA*mC*mA*mA*mC*mT*mC* mC*mT*mG*). […] This example also establishes short-term cultures of patient-derived melanoma xenograft (PDX)-derived tumor cells (PDCs) (FIG. 5D). […] To further expand the analysis, this embodiment establishes the PDX model of melanoma, and […] is administered intravenously (intravenous injection) every two days for 21 days.

[8] = tested on: melanoma cell line; experiment: Proliferation, migration and invasion of the melanoma cell line (summary statement); type: cell-based
Excerpt: The present invention detects the effect of PBX1-G4 on growth and lung metastasis of melanoma and discovers that the expression of PBX1 is positively correlated with the development of melanoma. The sequence of PBX1 is conserved in evolution and is same in mice and human beings. […] The identification of the present invention on the antisense oligonucleotide targeting the PBX1 promoter region G-quadruplex provides the new drug target and new treatment methods and ideas for development of the new generation of medicine for treating melanoma.

[9] = western blot, normalized to GAPDH
[10] = PDX, intravenous injection 20 mg/kg every two days for 21 days, vs PBX1 ASO scramble

“ASO: ASO specific for the complementary sequence of rG1 in the 5′ UTR of PBX1: mG*mG*mG*G*T*mT*mG*mC*mG*mG*mG*mG*mT*mG*mA*G*G*G*T*mG* (antisense GGGGTTGCGGGGTGAGGGTG; chemistry not given here)” was tested, and the “PBX1 transcript pulled down by BG4” value [1] was “increases”, the “mRNA level of PBX1” value ([2]; qRT-PCR) was “effectively reduce” and the “protein level of PBX1” value [2, 9] was “effectively reduce”. For the same substance, the “mRNA level of PBX1” value ([3]; qRT-PCR) was “effectively reduce”, the “protein level of PBX1” value [3, 9] was “effectively reduce” and the colony formation [4] was “decreases”. The colony formation ability [5] was “decreases”, the “lung metastasis of melanoma” value [6] was “almost completely inhibits” and the “expression of proliferation marker Ki67 in tumors” value ([7]; PDX) was “significant downregulation”. The tumor growth [7, 10] was “significant reduction”, the tumor weight [7, 10] was “significant reduction” and the “expression of PBX1 in tumors” value ([7]; PDX, qRT-PCR and IHC staining) was “significant downregulation”. For the same substance, the growth of melanoma ([7]; in vivo studies, summary statement) was “almost completely inhibits”, the “invasion capability of the melanoma cell line” value [8] was “obviously inhibits” and the “migration capability of the melanoma cell line” value [8] was “obviously inhibits”. The “proliferation capability of the melanoma cell line” value [8] was “obviously inhibits”.

Reference: US20240076667A1, “APPLICATION OF ANTISENSE OLIGONUCLEOTIDE TARGETING PBX1 PROMOTER REGION G-QUADRUPLEX IN PREPARATION OF MEDICINE FOR TREATING MELANOMA” (JILIN UNIVERSITY, priority 2022, published 2024)
